The target of experiment [1] is PIKfyve (Homo sapiens (Human), UniProt Q9Y2I7). Description: PIKfyve EEA1 Assay (endosomal vesicle enlargement, high content imaging in U2OS cells). The format is cell-based. The conditions noted are these: 3 hours of treatment, activity relative to maximal APY0201 activity. Here is the method:
PIKfyve EEA1 Assay. Genetic or pharmacological disruption of PIKfyve activity results in enlargement of endosomal vesicles. This enlargement was utilized as a surrogate readout of PIKFyve inhibition for routine triage of PIKfyve inhibitors. U2OS cells grown in 96-well assay plates were treated with compound diluted in DMEM media containing 10% fetal bovine serum. After 3 hours of treatment, cells were fixed with paraformaldehyde, permeabilized with 0.2% Triton-X in phosphate buffered saline and stained against EEA1. During the secondary antibody staining, cells were also stained with CellMask™ Deep Red and Hoechst to detect cytoplasms and nuclei respectively. Endosomal structures were visualized using a high content imager at 40× magnification. Images were analyzed using a linear classifier algorithm integrating EEA1 spot size, intensity and texture trained on images of cells treated with the potent reference compound APY0201. Compound activity was calculated by subtracting the DMSO signal and calculating percentage activity relative to maximal APY0201 activity. IC50 values were then calculated from concentration versus percent inhibition data by logistic regression.

Experiment [2] has as its target full-length human PIKFYVE (Homo sapiens (Human), UniProt Q9Y2I7, L932S/Q1183K/Q995L/S1033A/S696N/T998S). Put plainly: PIKfyve Biochemical Assay (ADP-Glo Kinase assay, GST-PIKFYVE). The conditions noted are these: ADP-Glo, 1 hour at room temperature, 10 μM to 3 nM in duplicate; read-out: PIKfyve Biochemistry IC50 (μM)*. Here is the method: PIKfyve Biochemical Assay. The biochemical PIKFyve inhibition assays were run by Cama Biosciences according to proprietary methodology based on the Promega ADP-Glo™ Kinase assay. […] GST-PIKFYVE was purified by using glutathione sepharose chromatography and used in an ADP-Glo™ Kinase assay (Promega). Reactions were set up by adding the test compound solution, substrate solution, ATP solution and kinase solution, each at 4× final concentrations. Reactions were prepared with assay buffer (50 mM MOPS, 1 mM DTT, pH7.2), mixed, and incubated in black 384 well polystyrene plates for 1 hour at room temperature. ADP-Glo™ reagent was then added for 40 minutes, followed by kinase detection reagent for an additional 40 minutes. The kinase activity was evaluated by detecting relative light units on a luminescence plate reader. Samples were run in duplicate from 10 μM to 3 nM. […] IC50 values were calculated from concentration versus percent inhibition curves by fitting to a four-parameter logistic curve.
The biochemical PIKFyve inhibition assays were run by Cama Biosciences according to proprietary methodology based on the Promega ADP-Glo™ Kinase assay. […] GST-PIKFYVE was purified by using glutathione sepharose chromatography and used in an ADP-Glo™ Kinase assay (Promega).
Reactions were set up by adding the test compound solution, substrate solution, ATP solution and kinase solution, each at 4× final concentrations. Reactions were prepared with assay buffer (50 mM MOPS, 1 mM DTT, pH7.2), mixed, and incubated in black 384 well polystyrene plates for 1 hour at room temperature. ADP-Glo™ reagent was then added for 40 minutes, followed by kinase detection reagent for an additional 40 minutes. The kinase activity was evaluated by detecting relative light units on a luminescence plate reader. Samples were run in duplicate from 10 uM to 3 nM. […] IC50 values were calculated from concentration vs % inhibition curves by fitting to a four-parameter logistic curve.
(In general: ADP-Glo first removes unused ATP, then detects ADP through luciferase.)

SMILES strings stand for the structures.

PIKfyve, sequence (Q9Y2I7 whole entry): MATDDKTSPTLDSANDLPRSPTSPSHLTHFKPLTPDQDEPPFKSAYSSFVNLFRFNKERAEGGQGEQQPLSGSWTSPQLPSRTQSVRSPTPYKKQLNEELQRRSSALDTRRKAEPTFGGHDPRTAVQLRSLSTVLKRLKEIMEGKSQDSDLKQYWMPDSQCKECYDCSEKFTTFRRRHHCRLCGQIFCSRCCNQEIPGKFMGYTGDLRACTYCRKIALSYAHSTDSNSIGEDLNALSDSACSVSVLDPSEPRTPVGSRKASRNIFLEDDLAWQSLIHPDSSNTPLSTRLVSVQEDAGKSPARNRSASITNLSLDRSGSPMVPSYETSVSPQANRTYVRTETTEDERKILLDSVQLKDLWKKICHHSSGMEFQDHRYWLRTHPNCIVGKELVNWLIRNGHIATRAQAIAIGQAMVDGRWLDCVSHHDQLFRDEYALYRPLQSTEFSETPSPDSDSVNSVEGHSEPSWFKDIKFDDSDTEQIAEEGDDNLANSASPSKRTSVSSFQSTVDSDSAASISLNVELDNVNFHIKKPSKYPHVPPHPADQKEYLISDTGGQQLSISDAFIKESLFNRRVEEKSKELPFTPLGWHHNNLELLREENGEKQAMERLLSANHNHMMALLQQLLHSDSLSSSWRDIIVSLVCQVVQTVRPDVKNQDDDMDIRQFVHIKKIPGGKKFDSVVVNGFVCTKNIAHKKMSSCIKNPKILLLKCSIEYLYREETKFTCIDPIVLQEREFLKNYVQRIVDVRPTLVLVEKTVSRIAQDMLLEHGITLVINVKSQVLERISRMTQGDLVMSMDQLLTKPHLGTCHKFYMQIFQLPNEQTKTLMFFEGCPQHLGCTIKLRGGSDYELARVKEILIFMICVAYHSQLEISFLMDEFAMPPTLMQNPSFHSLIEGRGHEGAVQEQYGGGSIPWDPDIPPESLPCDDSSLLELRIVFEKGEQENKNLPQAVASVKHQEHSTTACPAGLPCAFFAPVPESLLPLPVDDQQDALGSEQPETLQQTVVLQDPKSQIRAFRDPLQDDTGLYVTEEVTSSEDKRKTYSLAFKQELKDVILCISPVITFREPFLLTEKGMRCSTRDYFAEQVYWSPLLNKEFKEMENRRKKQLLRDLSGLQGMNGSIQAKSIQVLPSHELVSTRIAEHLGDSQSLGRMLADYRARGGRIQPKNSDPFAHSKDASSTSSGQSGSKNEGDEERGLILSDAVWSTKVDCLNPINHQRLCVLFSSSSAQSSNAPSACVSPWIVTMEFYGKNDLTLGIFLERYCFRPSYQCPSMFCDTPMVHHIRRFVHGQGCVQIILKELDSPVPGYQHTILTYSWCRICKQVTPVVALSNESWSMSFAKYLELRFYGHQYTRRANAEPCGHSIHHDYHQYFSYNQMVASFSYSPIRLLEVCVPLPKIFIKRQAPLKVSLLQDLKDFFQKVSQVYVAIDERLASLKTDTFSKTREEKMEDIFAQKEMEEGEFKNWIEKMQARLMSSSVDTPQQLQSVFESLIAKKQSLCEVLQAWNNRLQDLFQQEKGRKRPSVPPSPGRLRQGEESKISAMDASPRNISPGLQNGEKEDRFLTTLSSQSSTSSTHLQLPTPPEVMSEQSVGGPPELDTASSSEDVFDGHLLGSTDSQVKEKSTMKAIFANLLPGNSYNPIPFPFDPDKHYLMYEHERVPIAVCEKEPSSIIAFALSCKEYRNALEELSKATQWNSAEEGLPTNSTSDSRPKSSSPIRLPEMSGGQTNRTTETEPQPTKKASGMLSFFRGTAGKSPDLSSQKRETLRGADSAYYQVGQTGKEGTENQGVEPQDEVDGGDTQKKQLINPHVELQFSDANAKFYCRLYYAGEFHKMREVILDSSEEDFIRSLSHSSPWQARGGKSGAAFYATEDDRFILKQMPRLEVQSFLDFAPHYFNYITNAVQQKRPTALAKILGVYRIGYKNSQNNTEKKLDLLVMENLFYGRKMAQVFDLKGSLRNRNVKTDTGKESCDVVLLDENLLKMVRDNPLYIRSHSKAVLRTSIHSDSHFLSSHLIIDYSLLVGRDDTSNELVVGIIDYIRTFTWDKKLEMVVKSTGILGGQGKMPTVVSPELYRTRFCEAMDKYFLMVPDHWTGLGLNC
full-length human PIKFYVE, sequence (Q9Y2I7 whole entry S696N/L932S/Q995L/T998S/S1033A/Q1183K): as the sequence (Q9Y2I7 whole entry) above, with S696N, L932S, Q995L, T998S, S1033A, Q1183K counted along it

As for `COc1c(Nc2ccncc2)nc(N2CCOCC2)nc1-c1cccc(C(=O)N(C)C)c1` [Compound 11, 3-(5-methoxy-2-morpholino-6-(pyridin-4-ylamino)pyrimidin-4-yl)-N,N-dimethylbenzamide], the IC50 fell in the range of 1 to 10 µM in experiment [1] and 0.01 to 0.1 µM in experiment [2].

In the case of `COc1c(Nc2ccncc2)nc(N2CCOCC2)nc1-c1cncc(-c2cccnn2)c1` [Compound 57], the half-inhibitory concentration (IC50) was 0.1 to 1 µM in experiment [1] and less than 0.01 µM in experiment [2].

Regarding `COc1c(Nc2ccncc2)nc(N2CCOCC2)nc1-c1cncc(-c2ccn(C)n2)c1` [Compound 7, 5-methoxy-6-(5-(1-methyl-1H-pyrazol-3-yl)pyridin-3-yl)-2-morpholino-N-(pyridin-4-yl)pyrimidin-4-amine], the values for the IC50 in experiment [1] and in experiment [2] were 0.01 to 0.1 µM and less than 0.01 µM, respectively.

Consider `COc1c(Nc2ccncc2)nc(N2CCOCC2)nc1-c1cccc(-n2cccn2)c1` [Compound 8, 6-(3-(1H-pyrazol-1-yl)phenyl)-5-methoxy-2-morpholino-N-(pyridin-4-yl)pyrimidin-4-amine], for which the IC50 in experiment [1] was 0.1 to 1 µM; in experiment [2], less than 0.01 µM.

As to `COc1c(Nc2ccncc2)nc(N2CCOCC2)nc1-c1cccc(-c2cccnn2)c1` [Compound 10, 5-methoxy-2-morpholino-6-(3-(pyridazin-3-yl)phenyl)-N-(pyridin-4-yl)pyrimidin-4-amine], the figures for the concentration for half-maximal inhibition (IC50) in experiment [1] and in experiment [2] were 0.1 to 1 µM and 0.01 to 0.1 µM, respectively.

As to `COc1c(Nc2ccncc2)nc(N2CCCC2=O)nc1-c1cccc(-c2ccn(C)n2)c1` [Compound 44, 1-(5-methoxy-4-(3-(1-methyl-1H-pyrazol-3-yl)phenyl)-6-(pyridin-4-ylamino)pyrimidin-2-yl)pyrrolidin-2-one], the values for the concentration for half-maximal inhibition (IC50) in experiment [1] and in experiment [2] were more than 10 µM and 1 to 10 µM, respectively.

As to `COc1c(Nc2cccnc2)nc(N2CCOCC2)nc1-c1cncc(-c2ccn(C)n2)c1` [Compound 19, 5-methoxy-6-(5-(1-methyl-1H-pyrazol-3-yl)pyridin-3-yl)-2-morpholino-N-(pyridin-3-yl)pyrimidin-4-amine], the half-maximal inhibitory concentration (IC50) in experiment [1] fell in the range of 0.1 to 1 µM; in experiment [2], 0.01 to 0.1 µM.

For `COc1cn(C)nc1-c1cccc(-c2nc(N3CCOCC3)nc(Nc3ccncc3)c2OC)c1` [Compound 47, 5-methoxy-6-(3-(4-methoxy-1-methyl-1H-pyrazol-3-yl)phenyl)-2-morpholino-N-(pyridin-4-yl)pyrimidin-4-amine], the half-inhibitory concentration (IC50) in experiment [1] fell in the range of 0.1 to 1 µM; in experiment [2], 0.01 to 0.1 µM.

Turning to `Cn1ccc(-c2cnc3c(c2)-c2nc(N4CCOCC4)nc(Nc4ccncc4)c2OC3)n1` [Compound 40, 9-(1-methyl-1H-pyrazol-3-yl)-2-morpholino-N-(pyridin-4-yl)-6H-pyrido[3′,2′:4,5] pyrano[3,2-d]pyrimidin-4-amine], the IC50 in experiment [1] and in experiment [2] was 0.01 to 0.1 µM in each case.

As to `COc1c(-c2ccncc2)nc(N2CCOCC2)nc1-c1cccc(-c2ccn(C)n2)c1` [Compound 30, 4-(5-methoxy-4-(3-(1-methyl-1H-pyrazol-3-yl)phenyl)-6-(pyridin-4-yl)pyrimidin-2-yl)morpholine], the values for the 50% inhibitory concentration (IC50) in experiment [1] and in experiment [2] were 1 to 10 µM and 0.01 to 0.1 µM, respectively.

Consider `COc1c(Nc2ccncc2)nc(N2CCOCC2)nc1-c1cccc(-c2ncccn2)c1` [Compound 16, 5-methoxy-2-morpholino-N-(pyridin-4-yl)-6-(3-(pyrimidin-2-yl)phenyl)pyrimidin-4-amine], for which the figures for the IC50 in experiment [1] and in experiment [2] were 0.01 to 0.1 µM and less than 0.01 µM, respectively.

Consider `COc1c(Nc2ccncc2)nc(N2CCC(O)CC2)nc1-c1cccc(-c2ccn(C)n2)c1` [Compound 46, 1-(5-methoxy-4-(3-(1-methyl-1H-pyrazol-3-yl)phenyl)-6-(pyridin-4-ylamino)pyrimidin-2-yl)piperidin-4-ol], for which the IC50 is more than 10 µM in experiment [1] and 0.1 to 1 µM in experiment [2].

With `COc1c(Nc2ccncc2)nc(-c2ccncc2)nc1-c1ccnc(-c2ccn(C)n2)c1` [Compound 39, 5-methoxy-6-(2-(1-methyl-1H-pyrazol-3-yl)pyridin-4-yl)-N, 2-di(pyridin-4-yl)pyrimidin-4-amine], the values for the IC50 in experiment [1] and in experiment [2] were 0.01 to 0.1 µM and less than 0.01 µM, respectively.

A word on the IC50: it is the point on the concentration scale where inhibition reaches its midpoint.
